According to ChEMBL document CHEMBL1201862, “PubChem BioAssay data set” (2004):
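Grown in 96-well plates, cells were treated for 48 hours with each compound at five concentrations. Insufficient inhibition: endpoint recorded as highest concentration tested. GI50 = concentration required for 50% inhibition of growth.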 Calls of active or inactive are those of the source. Rule as the data show it: active = GI50 up to about 1.1 µM and inactive = higher. Residues, ends and D or L forms follow the SMILES beside them. *: point of attachment. Bn = c1ccc(C*)cc1

Assays:
Experiment in all cases: inhibition of tumour cell growth, NCI panel, 48 h
786-0 = test system: 786-0
MDA-N = test system: MDA-N
NCI-H226 = test system: NCI-H226
SNB-19 = test system: SNB-19
T47D = test system: T47D
BT-549 = test system: BT-549
M14 = test system: M14
MDA-MB-435 = test system: MDA-MB-435
DU-145 = test system: DU-145
NCI/ADR-RES = test system: NCI/ADR-RES
A549 = test system: A549
SF-295 = test system: SF-295
EKVX = test system: EKVX
Hs-578T = test system: Hs-578T
RPMI-8226 = test system: RPMI-8226
MDA-MB-231 = test system: MDA-MB-231
SNB-75 = test system: SNB-75
NCI-H460 = test system: NCI-H460
CCRF-CEM = test system: CCRF-CEM
HOP-62 = test system: HOP-62

Compound | GI50 (786-0) | GI50 (MDA-N) | GI50 (NCI-H226) | GI50 (SNB-19) | GI50 (T47D) | GI50 (BT-549) | GI50 (M14) | GI50 (MDA-MB-435) | GI50 (DU-145) | GI50 (NCI/ADR-RES) | GI50 (A549) | GI50 (SF-295) | GI50 (EKVX) | GI50 (Hs-578T) | GI50 (RPMI-8226) | GI50 (MDA-MB-231) | GI50 (SNB-75) | GI50 (NCI-H460) | GI50 (CCRF-CEM) | GI50 (HOP-62)
CN[C@@H](C)[C@H](OP(=O)(O)OC1[C@@H](O)[C@H](O)C(O)[C@H](O)[C@@H]1O)c1ccccc1 (stereo not given in full) | > 100 µM (inactive) | > 100 µM (inactive) | > 100 µM (inactive) | > 100 µM (inactive) | > 100 µM (inactive) | > 100 µM (inactive) | > 100 µM (inactive) | > 100 µM (inactive) | > 100 µM (inactive) | > 100 µM (inactive) | > 100 µM (inactive) | > 100 µM (inactive) | > 100 µM (inactive) | > 100 µM (inactive) | > 100 µM (inactive) | > 100 µM (inactive) | > 100 µM (inactive) | > 100 µM (inactive) | > 100 µM (inactive) | > 100 µM (inactive)
CCOC(=O)C1=C(C)N(Cc2ccccc2)C2(O)C=CC(O)=C3C(=O)c4ccccc4C(=O)C312 (stereo not given) | 13.4 µM (inactive) | 6.37 µM (inactive) | 20.6 µM (inactive) | 26.5 µM (inactive) | 18.9 µM (inactive) | 0.541 µM (active) | 4.99 µM (inactive) | 8.93 µM (inactive) | 16.5 µM (inactive) | 0.182 µM (active) | 15.3 µM (inactive) | 10.3 µM (inactive) | 16.4 µM (inactive) | 22.4 µM (inactive) | 9.42 µM (inactive) | 15.3 µM (inactive) | 22.1 µM (inactive) | 11.3 µM (inactive) | 8.61 µM (inactive) | 14.2 µM (inactive)
CC1=C(C2=C(C)C(=O)C(=O)c3cc(C)ccc32)c2ccc(C)cc2C(=O)C1=O | 0.318 µM (active) | 0.187 µM (active) | 1.9 µM (inactive) | 0.15 µM (active) | 0.249 µM (active) | 0.19 µM (active) | 0.182 µM (active) | 0.201 µM (active) | 1.44 µM (inactive) | 0.274 µM (active) | 1.7 µM (inactive) | 0.194 µM (active) | 0.28 µM (active) | 0.318 µM (active) | 0.333 µM (active) | 0.283 µM (active) | 0.236 µM (active) | 0.243 µM (active) | 0.152 µM (active) | 0.451 µM (active)
CN(C)c1ccc(/C=C/C=C(/C#N)c2ccccc2)cc1 | 28.1 µM (inactive) | 1.94 µM (inactive) | 53.1 µM (inactive) | 30.1 µM (inactive) | 9.57 µM (inactive) | > 100 µM (inactive) | 15.8 µM (inactive) | 2 µM (inactive) | 55.7 µM (inactive) | 6.92 µM (inactive) | 32.1 µM (inactive) | 26.8 µM (inactive) | 55.2 µM (inactive) | 21.9 µM (inactive) | 21.9 µM (inactive) | 37.8 µM (inactive) | 28.4 µM (inactive) | 25.5 µM (inactive) | 22.3 µM (inactive) | 19 µM (inactive)
C[C@]12CC[C@H]3[C@@H](CC=C4C[C@@H](O)CC[C@@]43C)[C@@H]1C/C(=C/c1ccccc1)[C@@H]2O | 22.1 µM (inactive) | 20.1 µM (inactive) | 18.5 µM (inactive) | 22.4 µM (inactive) | > 22 µM (inactive) | 24.1 µM (inactive) | > 45.1 µM (inactive) | > 46 µM (inactive) | > 42.2 µM (inactive) | 17.7 µM (inactive) | > 35.6 µM (inactive) | > 36.7 µM (inactive) | 11.8 µM (inactive) | 43 µM (inactive) | > 32.1 µM (inactive) | 43.1 µM (inactive) | > 41.9 µM (inactive) | 20.1 µM (inactive) | 14.6 µM (inactive) | 19.7 µM (inactive)
COC(=O)C(CC(C)C)NC(=O)C(N)Cc1ccc(OCc2ccccc2)cc1 (stereo not given) (H-Tyr(Bn)-Leu-OMe; configuration not given here) | > 10 µM (inactive) | > 10 µM (inactive) | > 10 µM (inactive) | > 10 µM (inactive) | > 10 µM (inactive) | > 10 µM (inactive) | > 10 µM (inactive) | > 10 µM (inactive) | > 10 µM (inactive) | > 10 µM (inactive) | > 10 µM (inactive) | > 10 µM (inactive) | > 10 µM (inactive) | > 10 µM (inactive) | > 10 µM (inactive) | > 10 µM (inactive) | > 10 µM (inactive) | > 10 µM (inactive) | > 10 µM (inactive) | > 10 µM (inactive)
NC(Cc1ccccc1)C(=O)O (stereo not drawn) [DL-PHENYLALANINE] | > 100 µM (inactive) | > 100 µM (inactive) | > 100 µM (inactive) | > 100 µM (inactive) | > 100 µM (inactive) | > 100 µM (inactive) | > 100 µM (inactive) | > 100 µM (inactive) | > 100 µM (inactive) | > 100 µM (inactive) | > 100 µM (inactive) | > 100 µM (inactive) | > 100 µM (inactive) | > 100 µM (inactive) | > 100 µM (inactive) | > 100 µM (inactive) | > 100 µM (inactive) | > 100 µM (inactive) | > 100 µM (inactive) | > 100 µM (inactive)
